pIC50: −log10 of the molar value.
What was measured:
[1] = molecular target: T1, α-glucosidase enzyme (EC3.2.1.20) (Saccharomyces cerevisiae, UniProt P53341); test: biochemical; details: for inhibition at 1 µg/mL / inhibition at 10 µg/mL / inhibition at 100 µg/mL / inhibition at 1000 µg/mL: read-out: % inhibition of α-glucosidase
T1 construct: purchased Sigma-Aldrich
Text: The α-glucosidase enzyme is mainly expressed in the small intestine and catalyzes the breakdown of carbohydrates into glucose units by cleaving the glucosidic bonds. α-Glucosidase blockers are the first-line drugs for the treatment of non-insulin-dependent DM by suppressing carbohydrate hydrolysis and consequently retarding glucose absorption into the bloodstream and reducing postprandial hyperglycemia. α-Glucosidase is, thus, considered to be an attractive pharmaceutical target for the treatment of […] via control of the blood glucose levels. Accordingly, there is a continuous need to develop a potential class of α-glucosidase inhibitors. Toward this aim, we explored the potency of the synthesized compounds to inhibit the activity of α-glucosidase. We examined the inhibitory activity of the synthesized compounds following the reported assay by Peytam et al.. Thus, the compounds at different concentrations (1000, 100, 10, and 1 µg/mL) were incubated with α-glucosidase and subsequently […] was added and the absorbance was monitored at 405 nm. […] To further investigate the structural aspects of 1,3-thiohydantoin scaffold, a substitution at the N1-position with the methyl-proponate group was performed. […] Nevertheless, it has adverse gastrointestinal effects including diarrhea and flatulence. Thus, the discovery of a novel class of potent antidiabetic agents is urgently demanded.
An ELISA reader was used to assess the inhibition of α-glucosidase by 1,3,5-trisubstituted-2-thioxoimidazolidin-4-ones derivatives at various doses (1000, 100, 10, and 1 µg/mL) according to Peytam et al.. […] Then, the substrate (25 µL, 4 mM) was added to the mentioned mixture and allowed to incubate at 37 °C for 20 min. Finally, the change in absorbance at 405 nm was monitored using a Cytation 3 hybrid microplate reader (BioTek, Winooski, VT, USA). […] GraphPad prism 6.0 was used to calculate the IC50 values of the investigated compounds from the nonlinear regression curve (Systat Software, Inc. Tools for Science) (https://www.graphpad.com/scientific-software/prism/ (accessed on 1 September 2022)).

α-amylase enzyme = molecular target: T2, α-amylase enzyme (Sus scrofa, UniProt P00690); test: α-amylase inhibition assay (DNSA, absorbance 595 nm); assay type: biochemical
T2 sequence (P00690 16-511): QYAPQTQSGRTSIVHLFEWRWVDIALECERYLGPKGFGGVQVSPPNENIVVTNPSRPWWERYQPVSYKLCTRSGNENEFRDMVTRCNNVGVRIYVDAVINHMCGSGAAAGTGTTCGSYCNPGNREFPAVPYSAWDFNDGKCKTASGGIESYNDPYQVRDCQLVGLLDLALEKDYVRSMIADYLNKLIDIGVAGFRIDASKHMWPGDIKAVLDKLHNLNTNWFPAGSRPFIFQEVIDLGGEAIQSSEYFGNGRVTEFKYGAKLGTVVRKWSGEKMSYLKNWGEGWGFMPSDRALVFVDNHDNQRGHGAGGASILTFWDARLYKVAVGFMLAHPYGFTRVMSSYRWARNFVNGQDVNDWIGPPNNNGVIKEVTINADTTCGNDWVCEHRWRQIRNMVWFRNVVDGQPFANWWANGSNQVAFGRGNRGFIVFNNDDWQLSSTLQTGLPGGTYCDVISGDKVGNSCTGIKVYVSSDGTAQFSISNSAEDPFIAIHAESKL
Text: Furthermore, pancreatic α-amylase mediates the activity of glycoproteins in the small intestine membrane, such as sucrase-isomaltase and sodium/glucose cotransporter 1, via binding with N-linked oligosaccharides. […] However, attempts to find novel antagonists with enhanced effectiveness and minimum adverse effects are still worth investigating. In this regard, we examined the inhibitory activity of the synthesized compounds 4a–b, 5a–b, and 7a–b toward α-amylase activity. Therefore, compounds at different concentrations (100, 10, 1, and 0.1 µg/mL) were mixed with the α-amylase enzyme and subsequently 3,5-dinitrosalicylic acid was added and the absorption was assessed at 595 nm. […] To date, several potent natural and synthetic antagonists with dual inhibitory activities toward α-amylase and α-glucosidase enzymes have been reported which succeeded in being applied in clinics.
The inhibitory activity of synthesized 1,3,5-trisubstituted-2-thioxoimidazolidin-4-ones derivatives toward α-amylase activity was determined by ELISA analysis according to Bernfeld and Colowick. The α-amylase enzyme was provided by Sigma-Aldrich and the stock solution was prepared in DMSO (10 mg/10 mL). […] Briefly, α-amylase enzyme (100 mg, 1 unit per mL) was mixed in 100 mL of a 20 mM sodium phosphate buffer (pH 6.9). […] After incubation, 100 μL of the DNSA reagent was added to this mixture, and then heated in a water bath at 85 °C for 15 min. The reaction mixture was taken from the water bath, cooled, and the absorbance value at 595 nm was assessed. Individual blanks were created in order to adjust the background absorbance. A control experiment was carried out following the same protocol using DMSO. The α-amylase enzyme activity and percentage of inhibition were determined using the following formula: % Inhibition=control−test/control×100

[2] = DPPH free radical scavenging assay
Text: The antioxidant capability of compounds 5a and 7a was estimated utilizing the DPPH (2,2-diphenyl-1- picrylhydrazyl) scavenging assay to assess the free radical scavenger activity. DPPH is a stable free radical substrate with a purple color which upon reaction with an antioxidant compound, converts into 1,1-diphenyl-2-picryl hydrazine, a […] compound. The DPPH assay is widely applied for the investigation of superoxide radical scavenging activity. In this regard, compounds 5a and 7a were incubated at different concentrations (3.12, 6.25, 12.5, 25, 50, 100, and 200 µg/mL) with DPPH substrate and the absorption was assessed by ELISA at 510 nm. In our investigations, Trolox, a water-soluble analogue of vitamin E, was applied as a standard antioxidant reference drug. […] Further, Qamar et al. synthesized and evaluated the antioxidant activity of some novel N3-substituted-2-thiohydantoins.
According to Valko et al., the ELISA approach was used to analyze the free-radical DPPH scavenging activity of compounds (5a and 7a) at different concentrations (3.12, 6.25, 12.5, 25, 50, 100, and 200 µg/mL). The DPPH assay assesses the hydrogen-donating activity and thus provides an evaluation of the antioxidant activity via estimating the DPPH free-radical scavenging activity. The color intensity of the reaction mixture was measured after a purple-colored stable free radical (DPPH) was reduced into the yellow-colored diphenylpicryl hydrazinem. Briefly, 200 µL of different concentrations of compounds 5a and 7a were mixed with 50 µL of DPPH (0.659 mM) solution, and the mixture was incubated at 25 °C for 20 min. The absorbance of the reaction mixture was estimated after incubation at 510 nm. In our investigations, trolox was employed as standard reference drug. A control reaction was performed, and the inhibitory efficiency of DPPH radical-scavenging activity was determined using the equation below: % Inhibition = (A0 − A1)/A0 × 100 (1) where A0 is absorbance of […] and A1 is the absorbance of the compound.

T1 sequence (P53341 whole entry): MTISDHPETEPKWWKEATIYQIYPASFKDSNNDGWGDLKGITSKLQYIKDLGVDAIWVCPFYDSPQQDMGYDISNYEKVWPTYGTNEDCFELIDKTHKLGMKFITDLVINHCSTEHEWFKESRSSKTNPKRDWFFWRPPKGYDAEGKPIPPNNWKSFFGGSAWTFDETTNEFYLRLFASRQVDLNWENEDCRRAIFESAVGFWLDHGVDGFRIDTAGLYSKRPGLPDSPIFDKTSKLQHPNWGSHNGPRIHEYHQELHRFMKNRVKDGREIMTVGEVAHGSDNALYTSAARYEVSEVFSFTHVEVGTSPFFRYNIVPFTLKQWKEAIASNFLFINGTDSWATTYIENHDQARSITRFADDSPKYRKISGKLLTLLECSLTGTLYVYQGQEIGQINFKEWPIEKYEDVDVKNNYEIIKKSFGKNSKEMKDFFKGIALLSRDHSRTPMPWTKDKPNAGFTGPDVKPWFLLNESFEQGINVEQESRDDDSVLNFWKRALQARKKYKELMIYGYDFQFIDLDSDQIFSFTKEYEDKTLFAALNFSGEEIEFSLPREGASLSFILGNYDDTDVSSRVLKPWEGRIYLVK

Compound: COC(=O)CCN1C(=S)N(/N=C(\C)c2ccccc2O)C(=O)/C1=C/c1cc(Br)ccc1OC(C)=O [Compound 7b, Methyl [5-(5-bromo-2-acetoxybenzylidene)-4-oxo-3-(2-hydroxyphenylethylidene)amino-2-thioxoimidazolidin-1-yl] propionate]
- pIC50 [1]: 4.66
- inhibition at 1 µg/mL [1]: 28%
- inhibition at 10 µg/mL [1]: 47.8%
- inhibition at 100 µg/mL [1]: 70.4%
- inhibition at 1000 µg/mL [1]: 86.5%
- melting point: 172 °C

Compound: C[C@H]1O[C@H](O[C@H]2[C@H](O)[C@@H](O)[C@@H](O[C@H]3[C@H](O)[C@@H](O)C(O)O[C@@H]3CO)O[C@@H]2CO)[C@H](O)[C@@H](O)[C@@H]1N[C@H]1C=C(CO)[C@@H](O)[C@H](O)[C@H]1O (stereo partly shown) [Acarbose, reference compound]
- inhibition at 1 µg/mL [1]: 31.8%
- inhibition at 10 µg/mL [1]: 58.4%
- inhibition at 100 µg/mL [1]: 76.9%
- inhibition at 1000 µg/mL [1]: 88.4%
- % inhibition of α-amylase (α-amylase enzyme; 0.1 µg/mL (log -1)): 37.2%
- % inhibition of α-amylase (α-amylase enzyme; 1 µg/mL (log 0)): 58.3%
- % inhibition of α-amylase (α-amylase enzyme; 10 µg/mL (log 1)): 80.3%
- % inhibition of α-amylase (α-amylase enzyme; 100 µg/mL (log 2)): 92.1%

Compound: Cc1c(C)c2c(c(C)c1O)CCC(C)(C(=O)O)O2 (stereo not shown) [Trolox, reference compound]
- %RSA (DPPH radical scavenging activity) ([2]; 3.12 µg/mL): 11.3811%
- %RSA (DPPH radical scavenging activity) ([2]; 6.25 µg/mL): 20.2046%
- %RSA (DPPH radical scavenging activity) ([2]; 12.5 µg/mL): 32.4808%
- %RSA (DPPH radical scavenging activity) ([2]; 25 µg/mL): 47.4425%
- %RSA (DPPH radical scavenging activity) ([2]; 50 µg/mL): 63.2992%
- %RSA (DPPH radical scavenging activity) ([2]; 100 µg/mL): 82.6087%
- %RSA (DPPH radical scavenging activity) ([2]; 200 µg/mL): 89.0026%
- DPPH free radical scavenging IC50 ([2]; n = 4): 58.09 µg/mL

Compound: C/C(=N\N1C(=O)/C(=C/c2cc(Br)ccc2O)NC1=S)c1ccccc1O [Compound 4b, 5-(5-Bromo-2-hydroxybenzylidene)-3-(2-hydroxyphenylethylidene)-amino-2-thioxoimidazolidin-4-ones]
- pIC50 [1]: ~4.14
- inhibition at 1 µg/mL [1]: 20.4%
- inhibition at 10 µg/mL [1]: 36.4%
- inhibition at 100 µg/mL [1]: 58.9%
- inhibition at 1000 µg/mL [1]: 84.7%
- melting point: 263 °C

Compound: C/C(=N\N1C(=O)/C(=C/c2ccccc2O)NC1=S)c1ccccc1O [Compound 4a, 5-(2-Hydroxybenzylidene)-3-(2-hydroxyphenylethylidene)-amino-2-thioxoimidazolidin-4-one]
- pIC50 [1]: 4.24
- inhibition at 1 µg/mL [1]: 24.5%
- inhibition at 10 µg/mL [1]: 44.9%
- inhibition at 100 µg/mL [1]: 62.6%
- inhibition at 1000 µg/mL [1]: 83.1%
- melting point: 256 °C

Compound: COC(=O)CCN1C(=S)N(/N=C(\C)c2ccccc2O)C(=O)/C1=C/c1cc(Br)ccc1O [Compound 5b, Methyl [5-(5-Bromo-2-hydroxybenzylidene)-4-oxo-3-(2-hydroxyphenylethylidene)amino-2-thioxoimidazolidin-1-yl] propionate]
- pIC50 [1]: 4.67
- inhibition at 1 µg/mL [1]: 27.6%
- inhibition at 10 µg/mL [1]: 50.3%
- inhibition at 100 µg/mL [1]: 71.4%
- inhibition at 1000 µg/mL [1]: 87.4%
- melting point: 192 °C
